Assay results from US9630961B2, “Arginine methyltransferase inhibitors and uses thereof” (Epizyme, Inc., priority 2013, dated 2017).

Tested on: mono-methyl arginine in RKO cells
Experiment: RKO Methylation Assay, In Cell Western for mono-methyl arginine and DNA content
Format: cell-based
Conditions: Homo sapiens, 72 hours, percent activation of mono-methyl arginine signal
Source text: RKO Methylation Assay RKO adherent cells were purchased from ATCC (American Type Culture Collection), Manassas, Va., USA. DMEM/Glutamax medium, penicillin-streptomycin, heat inactivated fetal bovine serum, 0.05% trypsin and D-PBS were purchased from Life Technologies, Grand Island, N.Y., USA. Odyssey blocking buffer, 800CW goat anti-rabbit IgG (H+L) antibody, and Licor Odyssey infrared scanner were purchased from Licor Biosciences, Lincoln, Nebr., USA. Mono-methyl arginine antibody was purchased from Cell Signaling Technology, Danvers, Mass., USA. Methanol was purchased from VWR, Franklin, Mass., USA. 10% Tween 20 was purchased from KPL, Inc., Gaithersburg, Md., USA. DRAQ5 was purchased from Biostatus Limited, Leicestershire, UK. RKO adherent cells were maintained in growth medium (DMEM/Glutamax medium supplemented with 10% v/v heat inactivated fetal bovine serum and 100 units/mL penicillin-streptomycin) and cultured at 37° C. under 5% CO2. Cell Treatment, in Cell Western (ICW) for Detection of Mono-Methyl Arginine and DNA Content. RKO cells were seeded in assay medium at a concentration of 20,000 cells per mL to a poly-D-lysine coated 384 well culture plate (BD Biosciences 356697) with 50 μL per well. Compound (100 nL) from a 96-well source plate was added directly to 384 well cell plate. Plates were incubated at 37° C., 5% CO2 for 72 hours. After three days of incubation, plates were brought to room temperature outside of the incubator for ten minutes and blotted on paper towels to remove cell media. 50 μL of ice cold 100% methanol was added directly to each well and incubated for 30 min at room temperature. After 30 min, plates were transferred to a Biotek EL406 plate washer and washed 2 times with 100 μL per well of wash buffer (IX PBS). Next 60 μL per well of Odyssey blocking buffer (Odyssey Buffer with 0.1% Tween 20 (v/v)) were added to each plate and incubated 1 hour at room temperature. Blocking buffer was removed and 20 μL per well of primary antibody was added (mono-methyl arginine diluted 1:200 in Odyssey buffer with 0.1% Tween 20 (v/v)) and plates were incubated overnight (16 hours) at 4° C. Plates were washed 5 times with 100 μL per well of wash buffer. Next 20 μL per well of secondary antibody was added (1:200 800CW goat anti-rabbit IgG (H+L) antibody, 1:1000 DRAQ5 (Biostatus limited) in Odyssey buffer with 0.1% Tween 20 (v/v)) and incubated for 1 hour at room temperature. The plates were washed 5 times with 100 μL per well wash buffer then 2 times with 100 μL per well of water. Plates were allowed to dry at room temperature then imaged on the Licor Odyssey machine which measures integrated intensity at 700 nm and 800 nm wavelengths. Both 700 and 800 channels were scanned. Calculations: First, the ratio for each well was determined by: Each plate included fourteen control wells of DMSO only treatment (minimum activation) as well as fourteen control wells for maximum activation treated with 20 μM of a reference compound. The average of the ratio values for each control type was calculated and used to determine the percent activation for each test well in the plate. Reference compound was serially diluted three-fold in DMSO for a total of nine test concentrations, beginning at 20 μM. Percent activation was determined and EC30 curves were generated using triplicate wells per concentration of compound.

SMILES	EC30
CN(CCN)Cc1c[nH]nc1-c1cncnc1 [Compound 4]	≥ 12 µM
CN(CCN)Cc1c[nH]nc1-c1cnn(C)c1 [Compound 8]	≥ 12 µM
CN(CCN)Cc1c[nH]nc1-c1ccc2scnc2c1 [Compound 9]	3.01 to 12 µM
CN(CCN)Cc1c[nH]nc1-c1cn[nH]c1 [Compound 12]	≥ 12 µM
CN(CCN)Cc1c[nH]nc1-c1cnc2[nH]ccc2c1 [Compound 13]	3.01 to 12 µM
CN(CCN)Cc1c[nH]nc1-c1cc[nH]n1 [Compound 14]	≥ 12 µM
CN(CCN)Cc1c[nH]nc1-c1ccnn1C [Compound 15]	≥ 12 µM
CCn1cc(-c2n[nH]cc2CN(C)CCN)cn1 [Compound 16]	≥ 12 µM
CN(CCN)Cc1c[nH]nc1-c1cnn(-c2ccccc2)c1 [Compound 17]	≤ 3 µM
CN(CCN)Cc1c[nH]nc1-c1cnn(CCO)c1 [Compound 18]	≥ 12 µM
CN(CCN)Cc1c[nH]nc1-c1ccc2cnn(C)c2c1 [Compound 19, N^1-methyl-N^1-((3-(1-methyl-1H-indazol-6-yl)-1H-pyrazol-4-yl)methyl)ethane-1,2-diamine]	3.01 to 12 µM
CN(CCN)Cc1c[nH]nc1-c1ccc2ncnn2c1 [Compound 20]	≥ 12 µM
CN(CCN)Cc1c[nH]nc1-c1ccc2nccn2c1 [Compound 21, N^1-((3-(imidazo[1,2-a]pyridin-6-yl)-1H-pyrazol-4-yl)methyl)-N^1-methylethane-1,2-diamine]	3.01 to 12 µM
CC(C)n1cc(-c2n[nH]cc2CN(C)CCN)cn1 [Compound 22]	3.01 to 12 µM
CC(C)Cn1cc(-c2n[nH]cc2CN(C)CCN)cn1 [Compound 23, N^1-((2′-isobutyl-3,4′-bi(1H-pyrazol)-4-yl)methyl)-N^1-methylethane-1,2-diamine]	≤ 3 µM
CN(CCN)Cc1c[nH]nc1-c1cnn(Cc2ccccc2)c1 [Compound 24, N^1-((1′-benzyl-3,4′-bi(1H-pyrazol)-4-yl)methyl)-N^1-methylethane-1,2-diamine]	≤ 3 µM
Cc1n[nH]c(C)c1-c1n[nH]cc1CN(C)CCN [Compound 25]	≥ 12 µM
CN(CCN)Cc1c[nH]nc1-c1ccc2[nH]ncc2c1 [Compound 27, N^1-((3-(1H-indazol-5-yl)-1H-pyrazol-4-yl)methyl)-N^1-methylethane-1,2-diamine]	≤ 3 µM
CN(CCN)Cc1c[nH]nc1-c1cnc(C2CC2)nc1 [Compound 28]	≥ 12 µM
